Test results from PubChem BioAssay (NCI).
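96-well plates; 48 h exposure; 5 concentrations. Endpoints by linear interpolation between flanking doses. Not reached: highest tested concentration assigned. GI50 is the concentration that inhibits growth by half. TGI: concentration producing complete growth inhibition.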

Assays:
Test in all cases: DTP human tumour cell line panel, 48 h
A549 NSCLC = test system: A549 NSCLC
LOX IMVI melanoma = test system: LOX IMVI melanoma
NCI-H23 lung = test system: NCI-H23 lung
KM12 colon = test system: KM12 colon
UACC-257 melanoma = test system: UACC-257 melanoma
OVCAR-8 ovarian = test system: OVCAR-8 ovarian
HCT-15 colon = test system: HCT-15 colon
COLO 205 colon = test system: COLO 205 colon
CCRF-CEM leukemia = test system: CCRF-CEM leukemia

Compound	TGI (A549 NSCLC)	TGI (LOX IMVI melanoma)	TGI (NCI-H23 lung)	TGI (KM12 colon)	TGI (UACC-257 melanoma)	TGI (OVCAR-8 ovarian)	TGI (HCT-15 colon)	TGI (COLO 205 colon)	GI50 (A549 NSCLC)	GI50 (LOX IMVI melanoma)	GI50 (NCI-H23 lung)	GI50 (CCRF-CEM leukemia)	TGI (CCRF-CEM leukemia)	GI50 (KM12 colon)	GI50 (UACC-257 melanoma)	GI50 (OVCAR-8 ovarian)	GI50 (HCT-15 colon)	GI50 (COLO 205 colon)
N=Nc1c(OC(=O)Nc2ccccc2)[nH]c2ccccc12	44.4 µM	33.7 µM	33.2 µM	29.3 µM	92.2 µM	33.9 µM	> 100 µM	42.9 µM										
COc1cc(N2CCN(C(C)C)CC2)ccc1Nc1nc(Nc2cccc3ncccc23)c2cc[nH]c2n1	15.6 µM	6.95 µM	> 25 µM	> 25 µM	8.14 µM	> 22.7 µM	> 21.6 µM	5.96 µM	2.92 µM	3.3 µM	5.7 µM	6.36 µM	> 22.4 µM	5.56 µM	3.67 µM	5.86 µM	4.35 µM	1.38 µM
CN(C)c1ccc2c(c1)CN1C(=O)c3ccccc3C1=N2	> 100 µM	> 100 µM	> 100 µM	> 100 µM	> 100 µM	> 100 µM	> 100 µM	> 100 µM	> 100 µM	> 100 µM	> 100 µM			> 100 µM	> 100 µM	> 100 µM	> 100 µM	> 100 µM
CC(C)(C)[Si](C)(C)OCC1CCC(n2cnc3c(=O)[nH]cnc32)O1 (stereo not drawn)	> 100 µM	> 100 µM	> 100 µM	> 100 µM	> 100 µM	> 100 µM	> 100 µM	> 100 µM					> 100 µM					
CCNC(C)(C)C(SS)c1ccc(Br)cc1 (stereo not drawn)	> 100 µM	60.1 µM	> 100 µM	> 100 µM	90.8 µM	> 100 µM	> 100 µM	> 100 µM					60 µM					
COc1ccc(C[n+]2c3ccccc3n3c4ccc(N)cc4ccc32)c(OC)c1OC	> 100 µM	36.3 µM	24.9 µM	13.7 µM	8.02 µM	32.5 µM	> 100 µM	5.65 µM	19.3 µM	10.7 µM	1.99 µM	4.28 µM	45.7 µM	2.41 µM	2.56 µM	6.48 µM	82.1 µM	1.9 µM
Cc1c(C)c2c(c(C)c1NC(=O)/C=C\C(=O)O)CCC(C)(CCCC(C)CCCC(C)CCCC(C)C)O2 (stereo not drawn)	3.62 µM	3.69 µM	4.52 µM	3.17 µM	3.83 µM	7.62 µM	4.65 µM	3.54 µM	1.79 µM	1.87 µM	2.1 µM	1.79 µM	6.11 µM	1.67 µM	1.72 µM	2.29 µM	1.83 µM	1.75 µM
Cc1oc2nc[nH]c(=O)c2c1C(=O)/C=C/c1ccc(Cl)cc1	11.2 µM	3.32 µM	15.3 µM	9.16 µM	12.7 µM	31.9 µM	3.51 µM	4.22 µM	2.66 µM	1.6 µM	2.51 µM	1.81 µM	6.94 µM	2.97 µM	2.72 µM	2.67 µM	1.29 µM	1.9 µM
Cc1cc2cccnc2c2ncccc12	10.6 µM	8.6 µM	87.6 µM	18.4 µM	6.94 µM	11.9 µM	21.3 µM	11.5 µM	0.949 µM	0.674 µM	3.11 µM			0.78 µM	2.14 µM	0.626 µM	0.436 µM	3.4 µM
O=C(/C=C1\C(=O)N(Cc2ccc([N+](=O)[O-])cc2)c2ccccc21)c1ccc(OCCN2CCCCC2)cc1	3.28 µM	2.78 µM	2.97 µM	3.54 µM	3.57 µM	4.8 µM	2.48 µM	3.27 µM	1.68 µM	1.4 µM	1.47 µM	0.323 µM	2.35 µM	1.81 µM	1.95 µM	2.21 µM	1.19 µM	1.64 µM
CN1CCN(CCCOc2cccc3nc(Nc4ccc(Cl)c(F)c4)ccc23)CC1	3.65 µM	3.17 µM	3.43 µM	3.43 µM	3.64 µM	3.65 µM	2.79 µM	3.34 µM	1.96 µM	1.64 µM	1.75 µM			1.77 µM	2.04 µM	2.02 µM	1.4 µM	1.7 µM
O=c1oc2cc(N=Cc3ccccc3Cl)ccc2c2ccccc12	> 100 µM	> 100 µM	> 100 µM	> 100 µM	> 100 µM	> 100 µM	> 100 µM	> 100 µM					> 100 µM					
N#CC(C#N)=Cc1c(-c2ccccc2)[nH]c2ccccc12	> 100 µM	> 47.3 µM	> 66.3 µM	27.5 µM	> 64.7 µM	> 90.2 µM	> 47.3 µM	15 µM	4.62 µM	3.27 µM	4.65 µM	2.41 µM	43.8 µM	0.66 µM	23.9 µM	5.75 µM	0.906 µM	1.76 µM
COc1cc2c(c(OC)c1OC)C(=O)CC(c1cccc(NC(=O)c3ccc(Br)cc3)c1)O2 (stereo not drawn)	> 100 µM	> 100 µM	> 100 µM		9.04 µM	9.19 µM	> 100 µM	> 100 µM	3.57 µM	2.41 µM	2.87 µM				2.96 µM	2.9 µM	2.31 µM	3.17 µM
C=C1C(=O)O[C@H]2[C@H]1CC/C(Cn1cc(CNCCc3c[nH]c4ccc(Cl)cc34)nn1)=C\CC[C@@]1(C)O[C@@H]21	> 100 µM	16 µM	45.5 µM	44.1 µM	27 µM	29.1 µM	29.9 µM	3.75 µM	34.9 µM	3.56 µM	17 µM	1.72 µM	5.08 µM	17.1 µM	10.7 µM	11.8 µM	13.4 µM	1.96 µM
COc1cc(/C=N/Nc2ncnc3c2cnn3C(C)C)ccc1O	> 25 µM	> 13.7 µM	> 25 µM	24.7 µM	> 25 µM	> 25 µM	> 25 µM	> 25 µM	9.92 µM	3.79 µM	6.05 µM	8.07 µM	> 23.1 µM	6.2 µM	14.9 µM	6.37 µM	11 µM	12.2 µM

Compound	TGI (A549 NSCLC)	TGI (LOX IMVI melanoma)	TGI (NCI-H23 lung)	TGI (KM12 colon)	TGI (UACC-257 melanoma)	TGI (OVCAR-8 ovarian)	TGI (HCT-15 colon)	TGI (COLO 205 colon)	GI50 (A549 NSCLC)	GI50 (LOX IMVI melanoma)	GI50 (NCI-H23 lung)	GI50 (CCRF-CEM leukemia)	TGI (CCRF-CEM leukemia)	GI50 (KM12 colon)	GI50 (UACC-257 melanoma)	GI50 (OVCAR-8 ovarian)	GI50 (HCT-15 colon)	GI50 (COLO 205 colon)
Oc1c(C(Nc2cccc3ccccc23)c2ccccc2)ccc2cccnc12 (stereo not drawn)	> 100 µM	13.7 µM	27.5 µM	> 100 µM	9.28 µM	39.3 µM	62.1 µM	17.7 µM	2.95 µM	1.92 µM	4.04 µM			5.03 µM	2.88 µM	3.22 µM	3.78 µM	4.17 µM
NC(=O)c1cc(-c2ccncc2)cc(-c2ccccc2)c1N	> 25 µM	> 25 µM	> 25 µM	> 25 µM	> 25 µM	> 25 µM	> 25 µM	> 25 µM	> 23.2 µM	> 22.7 µM	> 25 µM	> 25 µM	> 25 µM	> 25 µM	> 25 µM	15.1 µM	19 µM	22.1 µM
COc1ccc(-c2nn(-c3ccc(NC(=O)c4ccc(Cl)c(C(F)(F)F)c4)cc3)cc2-c2ccncc2)cc1Cl	> 100 µM		> 100 µM	> 100 µM	> 94.9 µM	> 100 µM		3.48 µM	1.81 µM		2.15 µM	0.582 µM	> 100 µM	0.514 µM	4.68 µM	2.37 µM		1.27 µM
NC1=NC(c2ccc(Cl)cc2)N(c2ccc(S(=O)(=O)Nc3ncccn3)cc2)C(N)=N1 (stereo not drawn)	> 100 µM	> 100 µM	> 100 µM	> 100 µM	> 100 µM	> 100 µM	> 100 µM	> 100 µM					> 100 µM					
CCN(CC)C(=O)CC1=C(C)/C(=C/c2[nH]c(-c3ccc[nH]3)cc2OC)N=C1C	> 100 µM	0.513 µM	71.9 µM	59.2 µM	4.85 µM	22.5 µM	0.891 µM	10.1 µM	0.639 µM	0.199 µM	0.794 µM	0.258 µM	35 µM	0.374 µM	1.03 µM	0.455 µM	0.278 µM	0.296 µM
O=C1c2ccccc2NC(c2cc(Cl)cc(Cl)c2O)N1CCc1ccccn1 (stereo not drawn)	> 100 µM	> 100 µM	> 100 µM	> 100 µM	> 100 µM	> 100 µM	> 100 µM	> 100 µM										
COc1cc(-c2nn(-c3ccc(NC(=O)Nc4ccc(Cl)c(Cl)c4)cc3)cc2-c2ccncc2)ccc1Cl	> 100 µM	4.75 µM	32.3 µM	7.41 µM	23.5 µM	> 100 µM	14.1 µM	4.2 µM	3.58 µM	1.98 µM	3.26 µM	3.16 µM	> 100 µM	2.62 µM	3.17 µM	3.49 µM	2.88 µM	1.97 µM
CN(CCC#N)c1ccc(/C=C(\C#N)c2cccc(C(F)(F)F)c2)cc1		> 100 µM	> 100 µM	> 100 µM		> 100 µM	> 100 µM	> 100 µM		3.75 µM	3.86 µM			2.97 µM		3.99 µM	3.14 µM	3.81 µM
O=C(/C=C/C12c3ccccc3C(c3ccccc31)C1C(=O)N(c3ccccc3)C(=O)C12)c1ccc(Cl)cc1 (stereo not drawn)	> 100 µM	3.25 µM	13.2 µM	> 100 µM	5.5 µM	> 100 µM	6.46 µM	3.58 µM	2.37 µM	1.65 µM	2.61 µM	0.566 µM	> 100 µM	2.18 µM	2.13 µM	1.43 µM	1.19 µM	1.79 µM
Cc1cc(N2CCN(C)CC2)nc(NCc2cc(Nc3ccnc4cc(Cl)ccc34)ccc2F)n1	5.3 µM	3.14 µM	> 100 µM	> 100 µM	3.9 µM	9.68 µM	8.36 µM	2.12 µM	2.34 µM	1.67 µM	3.46 µM			3.2 µM	2.11 µM	3.13 µM	2.21 µM	0.71 µM
Cc1cc(=O)oc2c(CN3CCCCC3)c(O)ccc12	> 100 µM	> 100 µM	> 100 µM		> 100 µM	> 100 µM	> 100 µM	> 100 µM					> 100 µM					
COc1ccc2c(c1)[C@]1(C[C@H]1c1ccc3c(/C=C/c4ccc(CN5C[C@@H](C)O[C@@H](C)C5)cc4)n[nH]c3c1)C(=O)N2	> 55.4 µM	10.4 µM	31.8 µM	> 73.6 µM	> 60.5 µM	51.1 µM	> 100 µM	15.1 µM	2.72 µM	1.96 µM	2.87 µM			0.0143 µM	6.8 µM	5.06 µM	3.34 µM	< 0.0209 µM
Cc1onc(-c2c(F)cccc2Cl)c1-c1ncc(-c2ccc(Cl)cc2)o1	> 100 µM		> 100 µM	> 100 µM	> 100 µM	> 100 µM	> 100 µM	> 100 µM	4.34 µM		5.04 µM	3.81 µM	> 100 µM	5.59 µM	3.25 µM	4.69 µM	2.89 µM	4.11 µM
CNC(=S)N/N=C1\CC(c2ccccc2)Oc2ccccc21 (stereo not drawn)	> 100 µM	> 100 µM	> 100 µM	> 100 µM		> 100 µM		> 100 µM					> 100 µM					
COc1cc2ccccc2c2cc([N+](=O)[O-])oc12	22.7 µM	3.93 µM	4.18 µM	4.68 µM	0.443 µM	> 71.8 µM	23.7 µM	2.36 µM										
